Data on 1 compound can be found in PMC9430380, “Oridonin Attenuates Burkholderia cenocepacia Virulence by Suppressing Quorum-Sensing Signaling” (Microbiology Spectrum, 2022).

In one experiment the target is T1, RqpR.
T1 construct: HIS-RqpR fusion protein (pDBHT2), cleaved with TEV protease
In words: ITC with purified protein (one-site model); EMSA shows inhibited binding to rpfFBC and cepI promoters. Also noted: species or system Burkholderia cenocepacia. A general note: In EMSA bound probe runs differently from free probe, usually more slowly.

The target of another experiment is T2, CepR (Burkholderia cenocepacia, UniProt B4EMD0).
T2 construct: HIS-CepR fusion protein (pDBHT2), cleaved with TEV protease
T2 sequence (B4EMD0 entry or part of it): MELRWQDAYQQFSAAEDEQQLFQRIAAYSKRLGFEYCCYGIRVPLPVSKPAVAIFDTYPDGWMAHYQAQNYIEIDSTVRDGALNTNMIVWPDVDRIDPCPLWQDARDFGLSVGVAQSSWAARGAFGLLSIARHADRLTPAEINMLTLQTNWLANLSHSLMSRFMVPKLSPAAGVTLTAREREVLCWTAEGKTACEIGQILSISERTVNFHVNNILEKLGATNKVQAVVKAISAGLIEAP
In words: ITC with purified protein (one-site model); EMSA shows inhibited binding to bclACB promoter.

One may read the Kd as the equilibrium constant for the complex coming apart. Read a low Kd as a tighter complex. Consider `C=C1C(=O)[C@]23[C@H](O)[C@H]1CC[C@H]2[C@@]12CO[C@]3(O)[C@@H](O)[C@@H]1C(C)(C)CC[C@@H]2O` [oridonin], for which the Kd on RqpR stood at 8.28 ± 0.895 µM; at CepR, 13.6 ± 0.826 µM.
